Assay results taken from US10494332B2, “Protein tyrosine phosphatases or SHP2 inhibitors and uses thereof” (Indiana University Research and Technology Corporation, priority 2015, dated 2019).
“And” between values parts separate entries of the source, which are not always exact repeats. Equal values may be shown once. Read-outs that look alike come from different tables or passages of the source.

Experiments:
[1] = biological target: T1, mPTPB (Mycobacterium tuberculosis, UniProt I6WXK4); test: biochemical
T1 sequence (I6WXK4 1-276): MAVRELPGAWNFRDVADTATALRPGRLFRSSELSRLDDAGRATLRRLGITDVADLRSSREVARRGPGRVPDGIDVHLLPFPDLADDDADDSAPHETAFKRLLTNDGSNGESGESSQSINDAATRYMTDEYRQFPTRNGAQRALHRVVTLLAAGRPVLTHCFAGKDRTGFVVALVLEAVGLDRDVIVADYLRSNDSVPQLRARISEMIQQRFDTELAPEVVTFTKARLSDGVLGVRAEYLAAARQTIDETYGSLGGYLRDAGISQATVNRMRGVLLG

[2] = biological target: mPTPA (Mycobacterium tuberculosis, UniProt P9WIA1); test: biochemical; details: for IC50: IC50 mPTPA
Chain of mPTPA (P9WIA1 whole entry): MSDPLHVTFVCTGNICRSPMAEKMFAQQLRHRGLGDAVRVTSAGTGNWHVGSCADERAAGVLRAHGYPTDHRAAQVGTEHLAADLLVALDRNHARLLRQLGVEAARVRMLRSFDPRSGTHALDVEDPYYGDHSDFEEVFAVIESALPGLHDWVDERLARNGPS

[3] = biological target: SHP1 (Homo sapiens, UniProt P29350); test: PTP inhibition assay (pNPP); format: biochemical; details: pNPP at Km, pH 7.0, 25° C.
Chain of SHP1 (P29350 whole entry): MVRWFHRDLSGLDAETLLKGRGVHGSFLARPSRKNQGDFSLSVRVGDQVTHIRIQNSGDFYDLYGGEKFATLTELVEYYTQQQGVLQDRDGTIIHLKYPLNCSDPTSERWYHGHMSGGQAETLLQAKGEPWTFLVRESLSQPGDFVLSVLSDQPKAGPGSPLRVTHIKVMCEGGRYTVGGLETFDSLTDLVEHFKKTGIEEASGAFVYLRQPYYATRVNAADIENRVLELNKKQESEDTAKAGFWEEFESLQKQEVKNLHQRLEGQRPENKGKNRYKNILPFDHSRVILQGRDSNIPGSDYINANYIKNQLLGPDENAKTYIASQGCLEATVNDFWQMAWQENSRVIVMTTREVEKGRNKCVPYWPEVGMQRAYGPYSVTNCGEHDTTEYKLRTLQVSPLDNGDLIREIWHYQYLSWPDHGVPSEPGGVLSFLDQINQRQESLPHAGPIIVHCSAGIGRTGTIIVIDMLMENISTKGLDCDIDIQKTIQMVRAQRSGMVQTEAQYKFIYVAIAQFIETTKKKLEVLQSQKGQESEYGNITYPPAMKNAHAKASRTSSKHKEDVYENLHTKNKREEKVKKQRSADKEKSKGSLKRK

[4] = biological target: T2, SHP2 (Homo sapiens, UniProt Q06124); test: SHP2 phosphatase inhibition assay (pNPP); format: biochemical; details: pNPP at Km, pH 7.0, 25° C.; read-out: IC50 SHP2
T2 sequence (Q06124 224-528): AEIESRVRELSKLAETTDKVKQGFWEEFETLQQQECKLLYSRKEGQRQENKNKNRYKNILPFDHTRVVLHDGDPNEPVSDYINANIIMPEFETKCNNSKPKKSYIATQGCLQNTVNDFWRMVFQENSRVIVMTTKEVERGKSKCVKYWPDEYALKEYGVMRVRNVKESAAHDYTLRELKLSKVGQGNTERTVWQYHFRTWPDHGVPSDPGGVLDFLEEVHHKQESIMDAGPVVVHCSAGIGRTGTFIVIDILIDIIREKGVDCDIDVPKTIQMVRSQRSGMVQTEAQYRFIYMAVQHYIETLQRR

[5] = biological target: T3, Meg2 (Homo sapiens, UniProt P43378); test: PTP inhibition assay (pNPP); format: biochemical
T3 sequence (P43378 1-593): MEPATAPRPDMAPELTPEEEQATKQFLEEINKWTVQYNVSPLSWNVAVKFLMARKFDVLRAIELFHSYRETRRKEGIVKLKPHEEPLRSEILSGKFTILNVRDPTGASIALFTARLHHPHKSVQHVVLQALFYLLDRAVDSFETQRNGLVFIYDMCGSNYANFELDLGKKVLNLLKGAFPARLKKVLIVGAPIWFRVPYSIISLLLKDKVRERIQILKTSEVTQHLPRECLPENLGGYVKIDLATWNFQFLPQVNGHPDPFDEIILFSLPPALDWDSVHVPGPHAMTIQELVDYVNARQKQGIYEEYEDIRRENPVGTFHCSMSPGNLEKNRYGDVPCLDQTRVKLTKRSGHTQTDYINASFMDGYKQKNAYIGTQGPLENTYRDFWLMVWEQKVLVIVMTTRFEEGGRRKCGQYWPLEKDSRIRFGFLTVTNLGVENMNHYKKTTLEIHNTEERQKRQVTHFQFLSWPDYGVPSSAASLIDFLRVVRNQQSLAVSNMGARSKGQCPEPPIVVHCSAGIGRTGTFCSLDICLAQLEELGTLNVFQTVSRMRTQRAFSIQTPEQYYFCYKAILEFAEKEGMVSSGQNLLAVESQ

[6] = biological target: PTPγ (Homo sapiens, UniProt P23470); test: PTP inhibition assay (pNPP); format: biochemical
Chain of PTPγ (P23470 20-1445): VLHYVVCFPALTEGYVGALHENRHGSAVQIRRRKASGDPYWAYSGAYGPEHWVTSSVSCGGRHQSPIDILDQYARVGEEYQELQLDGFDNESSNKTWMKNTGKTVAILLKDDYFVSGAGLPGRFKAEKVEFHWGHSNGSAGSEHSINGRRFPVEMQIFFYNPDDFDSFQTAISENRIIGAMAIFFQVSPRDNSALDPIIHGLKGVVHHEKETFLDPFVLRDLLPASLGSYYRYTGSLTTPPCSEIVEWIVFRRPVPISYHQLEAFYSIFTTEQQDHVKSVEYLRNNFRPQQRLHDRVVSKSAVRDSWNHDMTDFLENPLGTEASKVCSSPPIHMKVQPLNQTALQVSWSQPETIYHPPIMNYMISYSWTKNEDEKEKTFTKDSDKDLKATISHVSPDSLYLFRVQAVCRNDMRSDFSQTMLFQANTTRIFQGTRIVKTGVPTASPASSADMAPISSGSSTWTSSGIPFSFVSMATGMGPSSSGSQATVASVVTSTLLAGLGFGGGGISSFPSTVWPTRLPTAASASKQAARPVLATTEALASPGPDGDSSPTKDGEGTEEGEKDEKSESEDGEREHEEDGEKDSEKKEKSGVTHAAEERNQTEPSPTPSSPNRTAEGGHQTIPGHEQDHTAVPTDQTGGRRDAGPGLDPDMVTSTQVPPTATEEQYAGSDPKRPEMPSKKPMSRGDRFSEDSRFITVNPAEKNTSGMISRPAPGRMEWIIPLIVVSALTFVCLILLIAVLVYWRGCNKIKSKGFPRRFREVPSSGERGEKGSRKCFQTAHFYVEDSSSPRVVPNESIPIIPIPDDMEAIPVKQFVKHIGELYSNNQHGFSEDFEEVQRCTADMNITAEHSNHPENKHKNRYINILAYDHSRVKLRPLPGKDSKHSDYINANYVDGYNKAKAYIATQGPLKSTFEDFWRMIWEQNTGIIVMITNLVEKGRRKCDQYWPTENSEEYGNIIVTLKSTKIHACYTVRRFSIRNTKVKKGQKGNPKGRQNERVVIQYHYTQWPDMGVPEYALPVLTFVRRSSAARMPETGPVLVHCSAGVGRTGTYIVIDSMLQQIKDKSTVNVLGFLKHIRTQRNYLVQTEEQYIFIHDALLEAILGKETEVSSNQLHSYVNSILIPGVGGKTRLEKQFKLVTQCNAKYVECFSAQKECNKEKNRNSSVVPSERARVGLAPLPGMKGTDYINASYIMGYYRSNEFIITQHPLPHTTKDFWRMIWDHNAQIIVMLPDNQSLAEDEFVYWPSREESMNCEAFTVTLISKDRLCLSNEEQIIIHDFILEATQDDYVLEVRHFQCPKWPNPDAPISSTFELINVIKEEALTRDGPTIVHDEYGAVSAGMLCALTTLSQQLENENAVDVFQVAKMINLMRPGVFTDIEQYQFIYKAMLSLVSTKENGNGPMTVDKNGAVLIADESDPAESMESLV

[7] = biological target: T4, STEP (Homo sapiens, UniProt P54829); test: PTP inhibition assay (pNPP); format: biochemical; details: pNPP at Km, pH 7.0, 25° C.
T4 sequence (P54829 1-565): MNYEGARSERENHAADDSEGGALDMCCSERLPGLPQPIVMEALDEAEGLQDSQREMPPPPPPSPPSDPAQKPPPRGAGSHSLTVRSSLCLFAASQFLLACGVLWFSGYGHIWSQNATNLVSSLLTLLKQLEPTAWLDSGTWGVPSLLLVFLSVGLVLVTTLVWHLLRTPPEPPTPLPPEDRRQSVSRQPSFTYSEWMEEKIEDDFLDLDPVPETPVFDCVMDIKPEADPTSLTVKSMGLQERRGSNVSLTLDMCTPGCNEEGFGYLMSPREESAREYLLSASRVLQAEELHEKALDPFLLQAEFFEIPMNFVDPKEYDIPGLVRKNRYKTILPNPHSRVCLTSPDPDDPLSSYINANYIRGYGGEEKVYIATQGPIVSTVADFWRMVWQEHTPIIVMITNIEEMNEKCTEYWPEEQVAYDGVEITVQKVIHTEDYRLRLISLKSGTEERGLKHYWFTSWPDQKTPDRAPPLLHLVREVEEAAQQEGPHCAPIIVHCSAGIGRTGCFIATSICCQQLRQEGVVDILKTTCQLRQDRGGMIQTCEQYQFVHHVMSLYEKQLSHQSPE

[8] = biological target: T5, VHX (Homo sapiens, UniProt Q9NRW4); test: PTP inhibition assay (pNPP); format: biochemical; details: pNPP at Km, pH 7.0, 25° C.
T5 sequence (Q9NRW4 1-184): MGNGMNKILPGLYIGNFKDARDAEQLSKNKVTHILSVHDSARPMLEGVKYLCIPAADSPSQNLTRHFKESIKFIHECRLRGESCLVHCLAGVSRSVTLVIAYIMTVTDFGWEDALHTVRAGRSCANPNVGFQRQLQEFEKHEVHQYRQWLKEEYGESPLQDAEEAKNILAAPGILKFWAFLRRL

[9] = biological target: PTPμ (Homo sapiens, UniProt P28827); test: PTP inhibition assay (pNPP)
Chain of PTPμ (P28827 21-1452): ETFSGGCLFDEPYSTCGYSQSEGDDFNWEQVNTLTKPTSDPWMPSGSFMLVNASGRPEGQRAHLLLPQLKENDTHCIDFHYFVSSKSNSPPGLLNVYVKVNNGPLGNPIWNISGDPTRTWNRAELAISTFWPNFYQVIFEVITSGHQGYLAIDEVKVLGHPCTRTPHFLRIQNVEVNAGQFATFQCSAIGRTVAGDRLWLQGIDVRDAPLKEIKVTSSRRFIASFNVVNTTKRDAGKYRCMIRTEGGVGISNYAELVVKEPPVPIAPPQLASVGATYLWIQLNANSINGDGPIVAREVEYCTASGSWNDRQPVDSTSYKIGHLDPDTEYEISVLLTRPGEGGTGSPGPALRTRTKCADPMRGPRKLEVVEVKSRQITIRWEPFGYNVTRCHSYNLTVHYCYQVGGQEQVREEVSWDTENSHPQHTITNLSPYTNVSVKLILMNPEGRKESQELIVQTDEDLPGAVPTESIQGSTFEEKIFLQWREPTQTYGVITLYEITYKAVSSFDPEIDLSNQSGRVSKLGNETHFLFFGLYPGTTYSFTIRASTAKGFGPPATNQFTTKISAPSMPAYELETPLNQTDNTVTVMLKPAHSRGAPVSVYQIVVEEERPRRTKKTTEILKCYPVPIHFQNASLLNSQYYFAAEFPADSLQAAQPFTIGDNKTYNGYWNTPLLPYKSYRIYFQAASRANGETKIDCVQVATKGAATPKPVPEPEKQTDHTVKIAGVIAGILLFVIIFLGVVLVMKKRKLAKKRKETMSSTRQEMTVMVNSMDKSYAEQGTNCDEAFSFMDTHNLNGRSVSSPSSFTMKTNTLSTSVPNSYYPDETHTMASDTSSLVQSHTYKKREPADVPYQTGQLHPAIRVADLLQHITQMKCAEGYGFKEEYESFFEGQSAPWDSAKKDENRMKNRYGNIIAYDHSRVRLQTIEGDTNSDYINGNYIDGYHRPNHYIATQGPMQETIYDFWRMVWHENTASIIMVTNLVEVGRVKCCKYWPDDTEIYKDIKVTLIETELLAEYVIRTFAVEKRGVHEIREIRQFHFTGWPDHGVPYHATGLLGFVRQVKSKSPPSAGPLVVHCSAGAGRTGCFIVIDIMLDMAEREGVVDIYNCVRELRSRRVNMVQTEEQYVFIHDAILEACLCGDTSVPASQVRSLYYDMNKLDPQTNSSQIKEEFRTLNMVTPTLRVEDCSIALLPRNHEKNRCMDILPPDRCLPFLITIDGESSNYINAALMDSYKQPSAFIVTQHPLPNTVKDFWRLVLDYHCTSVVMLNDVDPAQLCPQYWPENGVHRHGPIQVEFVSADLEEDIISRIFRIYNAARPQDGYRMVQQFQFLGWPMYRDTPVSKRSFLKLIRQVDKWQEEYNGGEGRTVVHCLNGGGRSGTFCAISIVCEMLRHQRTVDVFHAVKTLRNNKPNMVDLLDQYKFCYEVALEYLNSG

[10] = read-out: IC50 VHX (second VHX line of Table 15)
[11] = Biochemical potency against target (Ic50, nM) mPTPB

With O=C(Nc1ccc2nc(C(F)(F)F)[nH]c2c1)C(c1ccccc1)S(=O)(=O)O (stereo not drawn) [Compound L319M54] the IC50 ([1]; IC50 mPTPB) was 78 nM, the IC50 [2] was 265 nM and 270 nM and the IC50 [3] was > 200 µM. For the same compound, the IC50 [4] was > 200 µM, the IC50 [5] was > 200 µM and the IC50 [6] was > 200 µM. For the same compound, the IC50 ([7]; read-out: IC50 STEP) was > 200 µM, the IC50 ([8]; read-out: IC50 VHX) was > 200 µM and the IC50 [8, 10] was > 200 µM. For the same compound, the IC50 [9] was > 200 µM.
O=C(Nc1ccc(N2CCOCC2)cc1)C(c1ccccc1)S(=O)(=O)O (stereo not drawn) [Compound L319M68] gave an IC50 ([1]; IC50 mPTPB) of 5000 nM, a Ki [2] of 130 nM and an IC50 [2] of 250 nM. For the same compound, the IC50 [3] was > 200 µM, the IC50 [4] was > 200 µM and the IC50 [5] was > 200 µM. For the same compound, the IC50 [6] was > 200 µM, the IC50 ([7]; read-out: IC50 STEP) was > 200 µM and the IC50 ([8]; read-out: IC50 VHX) was > 200 µM. The IC50 [8, 10] was > 200 µM and the IC50 [9] was > 200 µM.
In the case of O=C(Nc1cnc2ccccc2c1)C(c1ccccc1)S(=O)(=O)O (stereo not drawn) [Compound L319M88], the IC50 ([1]; IC50 mPTPB) is reported as 282 nM, the IC50 [2] is reported as 143 nM and the IC50 [3] is reported as > 200 µM. The IC50 [4] was > 200 µM, the IC50 [5] was > 200 µM and the IC50 [6] was > 200 µM. The IC50 ([7]; read-out: IC50 STEP) was > 200 µM, the IC50 ([8]; read-out: IC50 VHX) was > 200 µM and the IC50 [8, 10] was > 200 µM. The IC50 [9] was > 200 µM.
In the case of O=C(Nc1ccc(-c2ccccc2)cc1)C(c1ccccc1)S(=O)(=O)O (stereo not drawn) [Compound L319N08], the IC50 [3] is reported as 64.6 µM, the IC50 [4] is reported as > 100 µM and the IC50 ([7]; IC50 STEP) is reported as > 100 µM. The IC50 ([8]; IC50 VHX) was > 200 µM.
For O=C(Nc1nc2ccccc2s1)C(c1ccccc1)S(=O)(=O)O (stereo not drawn) [Compound L319N15], the IC50 ([1]; IC50 mPTPB) was 116 nM, the IC50 [2] was 194 nM and the IC50 [3] was > 200 µM and 59.6 µM. For the same compound, the IC50 [4] was > 200 µM and > 100 µM and 160 µM, the IC50 [5] was > 200 µM and the IC50 [6] was > 200 µM. The IC50 ([7]; read-out: IC50 STEP) was > 200 µM, the IC50 ([8]; read-out: IC50 VHX) was > 200 µM and the IC50 [8, 10] was > 200 µM. The IC50 [9] was > 200 µM.
In the case of O=C(C(c1ccccc1)S(=O)(=O)O)N1CCC(Cc2ccccc2)CC1 (stereo not drawn) [Compound L319N46], the IC50 [1, 11] is reported as 60 nM, the IC50 [2] is reported as > 200000 nM and the IC50 [3] is reported as > 200 µM. For the same compound, the IC50 [4] was > 200 µM, the IC50 [5] was > 200 µM and the IC50 [6] was > 200 µM. The IC50 ([7]; read-out: IC50 STEP) was > 200 µM, the IC50 ([8]; read-out: IC50 VHX) was > 200 µM and the IC50 [9] was > 200 µM.
For O=C(C(c1ccccc1)S(=O)(=O)O)N1CCC(c2ccc(Cl)c(Cl)c2)CC1 (stereo not drawn) [Compound L319N47], the IC50 [1, 11] was 9 nM, the IC50 [2] was 11300 nM and the IC50 [3] was 66 µM. It also gave an IC50 [4] of 76 µM, an IC50 [5] of 147 µM and an IC50 [6] of 180 µM. The IC50 ([7]; read-out: IC50 STEP) was > 200 µM, the IC50 ([8]; read-out: IC50 VHX) was 150 µM and the IC50 [9] was > 200 µM.
With O=C(C(c1ccccc1)S(=O)(=O)O)N1CCCC2CCCCC21 (stereo not drawn) [Compound L319N53] the IC50 [1, 11] was 20 nM, the IC50 [2] was > 200000 nM and the IC50 [3] was > 200 µM. For the same compound, the IC50 [4] was > 200 µM, the IC50 [5] was > 200 µM and the IC50 [6] was > 200 µM. For the same compound, the IC50 ([7]; read-out: IC50 STEP) was > 200 µM, the IC50 ([8]; read-out: IC50 VHX) was > 200 µM and the IC50 [9] was > 200 µM.
With O=C(CS(=O)(=O)O)Nc1nc2ccc([N+](=O)[O-])cc2s1 [Compound L335N15-07] the IC50 [3] was > 100 µM, the IC50 [4] was > 100 µM and the IC50 [5] was > 100 µM. The IC50 [6] was > 100 µM, the IC50 ([7]; read-out: IC50 STEP) was > 100 µM and the IC50 ([8]; read-out: IC50 VHX) was > 100 µM. The IC50 [8, 10] was > 100 µM and the IC50 [9] was > 100 µM.
For O=C(CS(=O)(=O)O)Nc1nc2ccccc2s1 [Compound L335N15], the IC50 ([1]; IC50 mPTPB) was 9500 nM, the IC50 [2] was 263 nM and the IC50 [3] was > 100 µM. The IC50 [4] was > 100 µM, the IC50 [5] was > 100 µM and the IC50 [6] was > 100 µM. The IC50 ([7]; read-out: IC50 STEP) was > 100 µM, the IC50 ([8]; read-out: IC50 VHX) was > 100 µM and the IC50 [8, 10] was > 100 µM. The IC50 [9] was > 100 µM.
